Values joined by “and” are separate entries in the source; they are usually repeats but may differ in a detail not shown here. Identical values can stand only once.
Assays:
[1] = system: AlgW; test: AlgW activation by agonist gradient (agonists versus velocity), saturated Abz-VLAG-pNA; format: biochemical, Pseudomonas aeruginosa; conditions: 100 μM Abz-VLAG-pNA, 200 nM AlgW
Protocol: (§1) FIG 2 Determination of enzyme apparent kinetic parameters of dual-signal-activated AlgW. (A) Activity assay of tripeptide or decapeptide-activated AlgW using the quenched fluorescent substrates Abz-VLAG-pNA, Abz-TVAW-pNA, and Abz-AAAA-pNA. All assays were placed in a buffer containing 25 mM Tris (pH 7.5) and 150 mM NaCl at 37°C for 1 h by adding 100 μM substrate, 200 nM AlgW, and 10 mM agonist peptides (tripeptide WVF or decapeptide SVRDELRWVF). (B) The apparent Michaelis-Menten parameters of AlgW cleavage quenched fluorescent substrates Abz-VLAG-pNA (100 μM) under the condition of peptide or lipid activation. (C) The activity assay of peptide or DDM activated AlgW using the saturated quenched fluorescent substrates Abz-VLAG-pNA. Under the gradient of peptide or DDM concentration,100 μM substrate and 200 nM AlgW were coincubated with or without 400 μM DDM or 10 mM agonist peptides in a buffer containing 25 mM Tris (pH 7.5) and 150 mM NaCl at 37°C for 1 h. The final assay volume of all experiments was 100 μl, and the appearance of fluorescent products was monitored at 60-s intervals at fluorescence wavelengths of λex = 310 nm and λem = 420 nm. […] The Kcat for the AlgW trimer was calculated by Kcat = Vmax/(Etotal), (Etotal) = 200/3 nM trimers. […]
For the enzyme mechanism of AlgW (30–389) and mutants, two internally quenched fluorescent peptide substrates incorporating the peptidase cleavage site of MucA/MucB, Abz-VLAG-pNA and Abz-TVAW-pNA, were designed and synthesized (GL Biochem Shanghai Ltd., China). In the intact peptide, the fluorescence of the anthraniloyl group is quenched by the P-nitroaniline (Abz is a fluorogenic group, and pNA is a quencher of fluorescence). This quenched fluorescence is liberated upon cleavage of peptide by 200 nM AlgW and mutants (200/3 nM for trimer), resulting in increased fluorescence that can then be monitored fluorometrically. […] The fluorescent degradation products were monitored at 60-s intervals at fluorescence wavelength—λex = 310 nm, λem = 420 nm ([41]). […]

[2] = system: AlgW; test: Muc- protease degradation assay; format: biochemical, Pseudomonas aeruginosa; conditions: MucB 130 μM, AlgW 25 μM; lipid-A 100 μM, DDM 400 μM or decapeptide 100 μM; 25 mM Tris-HCl pH 7.5, 150 mM NaCl, 37°C; 30 min; gel bands
Protocol: FIG 1 Degradation of MucA and MucB by AlgW in response to the peptides and lipid signals. (A and B) MucB/RseB (130 μM) was cleaved by AlgW/DegS (25 μM) in the presence of different agonist combinations, including lipid-A (100 μM), lipid-like detergent DDM (400 μM), decapeptide SVRDELRWVF (100 μM), and decapeptide combined with lipid-A or DDM. (C and D) MucB/RseB-protected MucA^peri/RseA^peri degradation by AlgW/DegS in the presence of different lengths of the activating peptides in a time-dependent manner. MucA^peri (125 μM), AlgW (25 μM), MucB (130 μM), activation peptides (tripeptide WVF or decapeptide SVRDELRWVF, 100 μM), and lipid-A (100 μM) were incubated at 37°C in a time-dependent manner in buffer (25 mM Tris-HCl pH 7.5, 150 mM NaCl). Similarly, RseA^peri (125 μM) was cleaved by DegS (25 μM) in the presences of RseB (130 μM), activation peptides (tripeptide YYF or decapeptide DNRDGNVYYF, 100 μM), and lipid-A (100 μM) at 37°C in a time-dependent manner in a phosphate buffer containing 50 mM NaHPO4 (pH 7.5), 200 mM NaCl, 10% glycerol, and 4 mM EDTA. (E and F) MucA^peri/RseA^peri was cleaved by AlgW/DegS in the presence of different agonist combinations in a time-dependent manner. MucA^peri (125 μM), AlgW (25 μM), activation decapeptide SVRDELRWVF (100 μM), and lipid-A (100 μM) were incubated at 37°C in a time-dependent manner in buffer. […]

[3] = molecular target: T1, AlgW (Pseudomonas aeruginosa, UniProt Q9HVX1); test: Activation of 200 nM AlgW cleavage of 100 μM Abz-VLAG-pNA by a DDM gradient without agonist peptide, 25 mM Tris pH 7.5, 150 mM NaCl, 37°C, Hill-type fit.; format: biochemical; conditions: n = 3; read-out: Half-Maximal Activation concentration (μM), DDM gradient
T1 construct: soluble periplasmic region, residues 30-389, pET22b with PreScission-cleavable 6xHis; trimer
T1 sequence (Q9HVX1 entry or part of it): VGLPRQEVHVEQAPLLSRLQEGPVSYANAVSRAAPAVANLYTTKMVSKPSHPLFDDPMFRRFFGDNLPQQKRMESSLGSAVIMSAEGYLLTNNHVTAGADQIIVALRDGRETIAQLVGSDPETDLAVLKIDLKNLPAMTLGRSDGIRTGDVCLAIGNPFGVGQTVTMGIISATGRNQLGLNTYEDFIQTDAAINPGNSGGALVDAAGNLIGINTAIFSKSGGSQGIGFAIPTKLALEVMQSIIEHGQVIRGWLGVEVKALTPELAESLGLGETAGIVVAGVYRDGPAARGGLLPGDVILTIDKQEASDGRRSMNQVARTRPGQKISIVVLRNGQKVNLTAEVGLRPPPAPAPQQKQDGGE
Protocol: as §1, with “Under the gradient of peptide or DDM concentration,100 μM substrate and 200 nM AlgW were coincubated with or without 400 μM DDM or 10 mM agonist peptides in a buffer containing 25 mM Tris (pH 7.5) and 150 mM NaCl at 37°C for 1 h.” left out
In the presence of a fixed amount of AlgW and saturated substrate, we measured the initial rates of AlgW at various concentrations of decapeptide or DDM (Fig. 2C). […]

SMILES: CCCCCCCCCCCCO[C@@H]1O[C@H](CO)[C@@H](O[C@H]2O[C@H](CO)[C@@H](O)[C@H](O)[C@H]2O)[C@H](O)[C@H]1O [DDM, N-dodecyl-β-D-maltopyranoside]
- Maximal cleavage activity ([1]; DDM gradient with 10 mM decapeptide (AlgW+Decapeptide), Tris pH 7.5, 37°C, 1 h): 717.8 ± 15.07 µM/min
- Hill constants ([1]; gradient of the agonist alone): 1.43 and 1.43 ± 0.22
- EC50 ([1]; gradient of the agonist alone, Tris pH 7.5, 37°C, Hill fit, three independent determinations, read-out: Half-Maximal Activation concentration): 92 ± 12.4 µM
- MucB cleavage by AlgW [2]: could be activated
- EC50 [3]: 92 ± 12.4 µM

From PMC8545111, “Molecular Basis of the Versatile Regulatory Mechanism of HtrA-Type Protease AlgW from Pseudomonas aeruginosa” (mBio, 2021)
